Data as given in patent US12049450B2, “Pyridyloxy-carboxylate derivative and preparation method therefor, herbicidal composition, and use” (Qingdao Kingagroot Chemical Compound Co., Ltd., priority 2018, dated 2024).

Tests used:
Assay type in all cases: in vivo
Monochoria vaginalis [1] = experiment: Weed control effect evaluation in rice field soil pot; conditions: paddy pot, 14 days after treatment, resistant to pyrazosulfuron-ethyl and penoxsulam
From the text: (§1) The activity level standard of harmful plants destruction (i. e. growth inhibition rate) is as follows: • Level 5: the growth inhibition rate is greater than 85%; • Level 4: the growth inhibition rate is equal to or greater than 60% and less than 85%; • Level 3: the growth inhibition rate is equal to or greater than 40% and less than 60%; • Level 2: the growth inhibition rate is equal to or greater than 20% and less than 40%; • Level 1: the growth inhibition rate is equal to or greater than 5% and less than 20%; • Level 0: the growth inhibition rate is less than 5%;
(§2) Transplanted rice safety evaluation and weed control effect evaluation in rice field:
Rice field soil was loaded into a 1/1,000,000 ha pot. The seeds of Monochoria vaginalis were sowed and gently covered with soil, then left to stand still in greenhouse in the state of 0.5-1 cm of water storage. It was kept at 3-4 cm of water storage thereafter. The weeds were treated by dripping the WP or SC water diluents prepared according to the common preparation method of the compounds of the present invention with pipette homogeneously to achieve specified effective amount when Monochoria vaginalis reached 0.5 leaf stage.
(§3) The fertility condition of Monochoria vaginalis 14 days and rice 21 days after the treatment of the compound of the invention with the naked eye.

Indica rice = experiment: Post-emergence test experiment (greenhouse pot, spray at 2-3 leaf stage); conditions: post-emergence, 600 g/ha, after 3 weeks
How it was run: (§4)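 Activity graded levels 0-5 by fresh-weight inhibition (level 5 above 85%, level 0 below 5%), assessed 3 weeks after treatment. Plants grown in greenhouse pots were sprayed post-emergence at 2-3 leaves using acetone/tween-80 solutions with methyl oleate synergist (1.5 L/ha).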

Japonica rice = experiment: as above; conditions: post-emergence, 600 g/ha, after 3 weeks
How it was run: as §4

Monochoria vaginalis [2] = experiment: as above; conditions: 1000 g/ha; post-emergence spray at 2-3 leaf stage; assessed after 3 weeks; fresh weight inhibition rate
How it was run: (§5)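 Weed seeds sown in soil-filled pots in greenhouse, sprayed at 2-3 leaf stage (2 weeks after sowing) with compound in acetone/tween-80 plus methyl oleate emulsible concentrate (1.5 L/ha) diluted in water. Fresh-weight growth inhibition scored after 3 weeks on 0-5 scale (5: >85%, 0: <5%).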

Cyperus iria = experiment: as above; conditions: post-emergence, 600 g/ha, after 3 weeks; from Hunan, resistant to ALS inhibitor herbicides
How it was run: as §5

Digitaria sanguinalis = experiment: as above; conditions: 1000 g/ha; post-emergence spray at 2-3 leaf stage; assessed after 3 weeks; fresh weight inhibition rate
How it was run: as §5

Galium spurium = experiment: as above; conditions: 1000 g/ha; post-emergence spray at 2-3 leaf stage; assessed after 3 weeks; fresh weight inhibition rate
How it was run: as §5

Abutilon theophrasti = experiment: as above; conditions: 1000 g/ha; post-emergence spray at 2-3 leaf stage; assessed after 3 weeks; fresh weight inhibition rate
How it was run: as §5

Echinochloa crusgalli = experiment: as above; conditions: for Activity level (growth inhibition rate) Echinochloa crusgalli: 1000 g/ha, post-emergence spray at 2-3 leaf stage, assessed after 3 weeks, fresh weight inhibition rate; for Echinochloa crusgalli, activity level (growth inhibition rate): post-emergence, 600 g/ha, after 3 weeks, from Hunan, resistant to ALS inhibitor herbicides
How it was run: as §5

rice (japonica rice) = experiment: Transplanted rice safety evaluation in rice field soil pot; conditions: 1000 g/ha, 21 days after treatment
From the text: as §1, §2
In addition, the rice field soil that loaded into the 1/1,000,000 ha pot was leveled to keep water storage at 3-4 cm depth. The 3-leaf stage rice (japonica rice) was transplanted at 3 cm of transplanting depth the next day. The compound of the present invention was treated by the same way after 5 days of transplantation.
as §3

SMILES	Monochoria Vaginalis, activity level (Monochoria vaginalis [1]; 1000 g/ha)	Indica rice, activity level (growth inhibition rate) (Indica rice)	Japonica rice, activity level (growth inhibition rate) (Japonica rice)	Activity level (growth inhibition rate) Monochoria Vaginalis (Monochoria vaginalis [2])	Cyperus iria, activity level (growth inhibition rate) (Cyperus iria)	Activity level (growth inhibition rate) Digitaria sanguinalis (Digitaria sanguinalis)	Activity level (growth inhibition rate) Galium spurium (Galium spurium)	Activity level (growth inhibition rate) Abutilon theophrasti (Abutilon theophrasti)	Activity level (growth inhibition rate) Echinochloa crusgalli (Echinochloa crusgalli)	Echinochloa crusgalli, activity level (growth inhibition rate) (Echinochloa crusgalli)	Rice, safety level (rice (japonica rice))	Monochoria Vaginalis, activity level (Monochoria vaginalis [1]; 50 g/ha)
Cc1c(F)nc(OC(C)C(=O)OCc2ccccc2)c(C)c1N (stereo not shown) [Compound 7]	5 (Level 5: the growth inhibition rate is greater than 85%)	0 (Level 0: the growth inhibition rate is less than 5%)	0 (Level 0: the growth inhibition rate is less than 5%)	5 (Level 5: the growth inhibition rate is greater than 85%)	5 (Level 5: the growth inhibition rate is greater than 85%)	5 (Level 5: the growth inhibition rate is greater than 85%)	5 (Level 5: the growth inhibition rate is greater than 85%)	5 (Level 5: the growth inhibition rate is greater than 85%)	5 (Level 5: the growth inhibition rate is greater than 85%)	5 (Level 5: the growth inhibition rate is greater than 85%)	0 (Level 0: the growth inhibition rate is less than 5%)	–
CC(Oc1nc(F)c(Br)c(N)c1Br)C(=O)SCc1ccccc1 (stereo not shown) [Compound 12]	5 (Level 5: the growth inhibition rate is greater than 85%)	0 (Level 0: the growth inhibition rate is less than 5%)	0 (Level 0: the growth inhibition rate is less than 5%)	5 (Level 5: the growth inhibition rate is greater than 85%)	5 (Level 5: the growth inhibition rate is greater than 85%)	5 (Level 5: the growth inhibition rate is greater than 85%)	5 (Level 5: the growth inhibition rate is greater than 85%)	5 (Level 5: the growth inhibition rate is greater than 85%)	5 (Level 5: the growth inhibition rate is greater than 85%)	5 (Level 5: the growth inhibition rate is greater than 85%)	0 (Level 0: the growth inhibition rate is less than 5%)	–
Cc1c(OC(C)C(=O)OCc2ccccc2)nc(F)c(Cl)c1N (stereo not shown) [Compound 20]	5 (Level 5: the growth inhibition rate is greater than 85%)	0 (Level 0: the growth inhibition rate is less than 5%)	0 (Level 0: the growth inhibition rate is less than 5%)	5 (Level 5: the growth inhibition rate is greater than 85%)	5 (Level 5: the growth inhibition rate is greater than 85%)	5 (Level 5: the growth inhibition rate is greater than 85%)	5 (Level 5: the growth inhibition rate is greater than 85%)	5 (Level 5: the growth inhibition rate is greater than 85%)	5 (Level 5: the growth inhibition rate is greater than 85%)	5 (Level 5: the growth inhibition rate is greater than 85%)	0 (Level 0: the growth inhibition rate is less than 5%)	–
CC(Oc1nc(F)c(Cl)c(N)c1Cl)C(=O)SCc1ccccc1 (stereo not shown) [Compound 67]	5 (Level 5: the growth inhibition rate is greater than 85%)	0 (Level 0: the growth inhibition rate is less than 5%)	0 (Level 0: the growth inhibition rate is less than 5%)	5 (Level 5: the growth inhibition rate is greater than 85%)	5 (Level 5: the growth inhibition rate is greater than 85%)	5 (Level 5: the growth inhibition rate is greater than 85%)	5 (Level 5: the growth inhibition rate is greater than 85%)	5 (Level 5: the growth inhibition rate is greater than 85%)	5 (Level 5: the growth inhibition rate is greater than 85%)	5 (Level 5: the growth inhibition rate is greater than 85%)	0 (Level 0: the growth inhibition rate is less than 5%)	–
CC(Oc1nc(F)c(Cl)c(N)c1Cl)C(=O)OCc1ccccc1F (stereo not shown) [Compound 75]	5 (Level 5: the growth inhibition rate is greater than 85%)	0 (Level 0: the growth inhibition rate is less than 5%)	0 (Level 0: the growth inhibition rate is less than 5%)	5 (Level 5: the growth inhibition rate is greater than 85%)	5 (Level 5: the growth inhibition rate is greater than 85%)	5 (Level 5: the growth inhibition rate is greater than 85%)	5 (Level 5: the growth inhibition rate is greater than 85%)	5 (Level 5: the growth inhibition rate is greater than 85%)	5 (Level 5: the growth inhibition rate is greater than 85%)	5 (Level 5: the growth inhibition rate is greater than 85%)	0 (Level 0: the growth inhibition rate is less than 5%)	–
CC(Oc1nc(F)c(Cl)c(N)c1Cl)C(=O)SCc1cccc(Cl)c1 (stereo not shown) [Compound 76]	5 (Level 5: the growth inhibition rate is greater than 85%)	0 (Level 0: the growth inhibition rate is less than 5%)	0 (Level 0: the growth inhibition rate is less than 5%)	5 (Level 5: the growth inhibition rate is greater than 85%)	5 (Level 5: the growth inhibition rate is greater than 85%)	5 (Level 5: the growth inhibition rate is greater than 85%)	5 (Level 5: the growth inhibition rate is greater than 85%)	5 (Level 5: the growth inhibition rate is greater than 85%)	5 (Level 5: the growth inhibition rate is greater than 85%)	5 (Level 5: the growth inhibition rate is greater than 85%)	0 (Level 0: the growth inhibition rate is less than 5%)	–
COc1cnc(OC)n2nc(NS(=O)(=O)c3c(OCC(F)F)cccc3C(F)(F)F)nc12 [Penoxsulam, reference compound]	–	–	–	–	–	–	–	–	–	–	–	1 (Level 1: the growth inhibition rate is equal to or greater than 5% and less than 20%)
